In patent US20120277209A1, “PYRAZINE COMPOUNDS AS PHOSPHODIESTERASE 10 INHIBITORS” (Amgen Inc., priority 2009, published 2012) one finds IC50 data, which are given here for 52 molecules.

The pIC50 is the negative decadic logarithm of the IC50, by convention in mol/L.

pIC50: −log10 of the molar value. Like-named read-outs stand apart in the source and are kept apart here. Bounds are passed on as bounds.

This assay has as its target PDE10 (UniProt Q9Y233). The experiment in a line: PDE10 enzyme inhibition, IMAP TR-FRET assay (MPDE10A7 Enzyme Activity and Inhibition). The format is biochemical. In a few lines: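 PDE10A enzyme or tissue homogenate preincubated with compounds 30 min at room temperature, then fluorescein-labelled cAMP or cGMP added for 60 min. IMAP binding reagent stop, TR-FRET read. Values are mean IC50s, grouped into five potency classes.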

The mark [1] stands for this setting: IC50 class against PDE10, read-out: IC50.
The mark [2] stands for this setting: PDE10 enzyme inhibition, average IC50 data for each compound, read-out: Average IC50.
Where [3] appears, read: PDE10 enzyme inhibition, chiral compounds separated from racemic mixtures, read-out: IC50.

With `COc1nccnc1Oc1ccc(C(=O)c2nc3ccccc3[nH]2)cc1` [Example 160, (1H-benzo[d]imidazol-2-yl)(4-(3-methoxypyrazin-2-yloxy)phenyl)methanone], the pIC50 under setting [1] is 5.30 to 6.00.
For `O=C(c1ccc(Oc2nccnc2C2=CCOCC2)cc1)c1nc2ncccc2[nH]1` [drawing 879], the negative-log IC50 (pIC50) under setting [2] was 7.50.
Regarding `CCCOc1nccnc1Oc1ccc(C(=O)c2nc3ccccc3[nH]2)cc1` [Example 180, (1H-benzo[d]imidazol-2-yl)(4-(3-propoxypyrazin-2-yloxy)phenyl)methanone], under setting [1], the pIC50 is 5.30 to 6.00.
On the same count and under the same terms, for `NC(=O)C1CCN(c2nccnc2Oc2ccc(Nc3nc4ccccc4s3)cc2)CC1` [Example 81, 1-(3-(4-(benzo[d]thiazol-2-ylamino)phenoxy)pyrazin-2-yl)piperidine-4-carboxamide] the value was more than 7.60.
Regarding `OCCC1CCN(c2nccnc2Oc2ccc(Nc3nc4ccccc4s3)cc2)CC1` [drawing 735], the pIC50 under setting [2] is 8.02.
Same read-out and setting: as for `CC(=O)N1CCC(c2nccnc2Oc2ccc(C(O)c3nc4ccccc4[nH]3)cc2)CC1` (stereo not shown) [drawing 975], the figure is 7.72.
`O=C(c1ccc(Oc2nccnc2-c2cccnc2)cc1)c1nc2ccccc2[nH]1` [Example 123, (1H-benzo[d]imidazol-2-yl)(4-(3-(pyridin-3-yl)pyrazin-2-yloxy)phenyl)methanone]: under setting [1], the pIC50 was more than 7.60.
Still for that read-out and setting: for `Cc1nc2c([nH]1)CCN(c1nccnc1Oc1ccc(Nc3nc4ccccc4s3)cc1)C2` [Example 82, N-(4-(3-(2-methyl-6,7-dihydro-1H-imidazo[4,5-c]pyridin-5(4H)-yl)pyrazin-2-yloxy)phenyl)benzo-[d]thiazol-2-amine] the value was 6.60 to 7.00.
`CC(=O)N1CCC(c2nccnc2Oc2ccc(C(=O)c3nc4ccccc4n3C)cc2)CC1` [drawing 965]: the pIC50 under setting [2] was 9.76.
Still for that read-out and setting: as for `COc1cnccc1-c1nccnc1Oc1ccc(C(=O)c2nc3ccccc3[nH]2)cc1` [drawing 960], the figure is 9.31; as for `c1ccc2sc(Nc3ccc(Oc4nccnc4-c4ccc(N5CCOCC5)cc4)cc3)nc2c1` [drawing 763], 5.97.
Take `c1ccc2[nH]c(Nc3ccc(Oc4nccnc4C4CCOCC4)cc3)nc2c1` [Example 207, N-(4-(3-(tetrahydro-2H-pyran-4-yl)pyrazin-2-yloxy)phenyl)-1H-benzo[d]imidazol-2-amine]: the pIC50 under setting [1] was more than 7.60.
On to `C[C@@H]1CN(c2nccnc2Oc2ccc(Nc3nc4ccccc4s3)cc2)CC(=O)N1` [Example 267, (R)-4-(3-(4-(benzo[d]thiazol-2-ylamino)phenoxy)pyrazin-2-yl)-6-methylpiperazin-2-one], for which the pIC50 under setting [3] is more than 7.60.
Take `C[C@@H](O)C1CCN(c2nccnc2Oc2ccc(C(=O)c3nc4ccccc4[nH]3)cc2)CC1` (stereo in doubt): the pIC50 under setting [2] is 9.13.
As for `Fc1ccc2sc(Nc3ccc(Oc4cnccn4)cc3)nc2c1` [Example 219, 5-fluoro-N-(4-(pyrazin-2-yloxy)phenyl)benzo[d]thiazol-2-amine], the pIC50 under setting [1] is 5.30 to 6.00.
As to `N#Cc1ccc(-c2nccnc2Oc2ccc(C(=O)c3nc4ccccc4[nH]3)cc2)cc1` [Example 108, 4-(3-(4-(1H-benzo[d]imidazole-2-carbonyl)phenoxy)pyrazin-2-yl)benzonitrile], the pIC50 under setting [1] was more than 7.60.
For the molecule `CC1(O)CCN(c2nccnc2Oc2ccc(Nc3nc4ccccc4s3)cc2)CC1` [drawing 742], under setting [2], the negative-log IC50 (pIC50) is 8.09.
As to `N#Cc1cccc(-c2nccnc2Oc2ccc(C(=O)c3nc4ccccc4[nH]3)cc2)c1` [Example 125, 3-(3-(4-(1H-benzo[d]imidazole-2-carbonyl)phenoxy)pyrazin-2-yl)benzonitrile], the pIC50 under setting [1] is more than 7.60.
Turning to `Cc1ncccc1-c1nccnc1Oc1ccc(C(=O)c2nc3ccccc3n2C)cc1` [drawing 957], the pIC50 under setting [2] was 8.06.
As to `N#C[C@@H]1CCN(c2nccnc2Oc2ccc(C(=O)c3nc4ccccc4[nH]3)cc2)C1` [Example 261, (R)-1-(3-(4-(1H-benzo[d]imidazole-2-carbonyl)phenoxy)pyrazin-2-yl)pyrrolidine-3-carbonitrile], the pIC50 under setting [3] was more than 7.60.
Take `COC(=O)[C@@H]1CCN(c2nccnc2Oc2ccc(C(=O)c3nc4ccccc4[nH]3)cc2)C1` [drawing 838]: under setting [2], the pIC50 was 8.87.
Still for that read-out and setting: as for `O=C(c1ccc(Oc2nccnc2Cl)cc1)c1nc2ncccc2[nH]1`, the figure is 6.77; as for `O=C(c1ccc(Oc2nccnc2[C@@H]2CCC[C@H](O)C2)cc1)c1nc2ccccc2[nH]1` (stereo in doubt), 8.99.
On to `CC(F)C(=O)N1CCC(c2nccnc2Oc2ccc(C(=O)c3nc4ccccc4[nH]3)cc2)CC1` (stereo not shown) [Example 234, 1-(4-(3-(4-(1H-benzo[d]imidazole-2-carbonyl)phenoxy)pyrazin-2-yl)piperidin-1-yl)-2-fluoropropan-1-one], for which the pIC50 under setting [1] is more than 7.60.
Turning to `O=C(c1ccc(Oc2nccnc2OCC(F)(F)F)cc1)c1nc2ccccc2[nH]1` [Example 164], the pIC50 under setting [1] was 6.00 to 6.60.
For `O=C(c1ccc(Oc2nccnc2[C@H]2CC[C@H](O)CC2)cc1)c1nc2ccccc2[nH]1`, the pIC50 under setting [2] was 9.37.
As to `O[C@H]1CCC[C@H](c2nccnc2Oc2ccc(Nc3nc4ccccc4s3)cc2)C1` [drawing 894], the pIC50 under setting [2] was 8.80.
Same read-out and setting: as for `O=C(c1ccc(Oc2nccnc2[C@H]2CC[C@@H](O)CC2)cc1)c1nc2ccccc2[nH]1` [drawing 900], the figure is 8.87; as for `COc1cncc(-c2nccnc2Oc2ccc(Nc3nc4ccccc4s3)cc2)c1` [drawing 918], 7.91.
As to `COc1ncccc1-c1nccnc1Oc1ccc(C(=O)c2nc3cc(F)ccc3[nH]2)cc1` [Example 117, (5-fluoro-1H-benzo[d]imidazol-2-yl)(4-(3-(2-methoxypyridin-3-yl)pyrazin-2-yloxy)phenyl)methanone], the pIC50 under setting [1] is 7.00 to 7.60.
Consider `COC[C@@H]1CCN(c2nccnc2Oc2ccc(Nc3nc4ccccc4s3)cc2)C1` (stereo in doubt), for which, under setting [2], the pIC50 is 7.65.
On the same count and under the same terms, as for `O=C(c1ccc(Oc2nccnc2C(=O)NCCO)cc1)c1nc2ccccc2[nH]1` [drawing 817], the figure is 7.18.
With `O=C(c1ccc(Oc2nccnc2OCCc2ccccn2)cc1)c1nc2ccccc2[nH]1` [Example 177, (1H-benzo[d]imidazol-2-yl)(4-(3-(2-(pyridin-2-yl)ethoxy)pyrazin-2-yloxy)phenyl)methanone], under setting [1], the pIC50 was 7.00 to 7.60.
For the molecule `O=C(c1ccc(Oc2nccnc2OCCN2CCCC2)cc1)c1nc2ccccc2[nH]1` [Example 173, (1H-benzo[d]imidazol-2-yl)(4-(3-(2-(pyrrolidin-1-yl)ethoxy)pyrazin-2-yloxy)phenyl)methanone], under setting [1], the pIC50 is 6.60 to 7.00.
Same read-out and setting: for `COc1nc2ccccc2cc1-c1nccnc1Oc1ccc(C(=O)c2nc3ccccc3[nH]2)cc1` [Example 115, (1H-benzo[d]imidazol-2-yl)(4-(3-(2-methoxyquinolin-3-yl)pyrazin-2-yloxy)phenyl)methanone] the value was more than 7.60.
As to `O=C(c1ccc(Oc2nccnc2N2CC[C@@H](O)C2)cc1)c1nc2ccccc2[nH]1` (stereo in doubt), the pIC50 under setting [2] was 8.12.
Turning to `O=C(c1ccc(Oc2nccnc2C(=O)NC2(Cc3ccccc3)CC2)cc1)c1nc2ccccc2[nH]1` [drawing 822], under setting [2], the pIC50 is 9.24.
As for `O=C(c1ccc(Oc2nccnc2C(=O)O)cc1)c1nc2ccccc2[nH]1`, under setting [2], the pIC50 was 6.25.
The same measure, in the same setting: for `Fc1ccc2nc(Nc3ccc(Oc4nccnc4C4CCOCC4)cc3)sc2c1` [drawing 872] the value was 9.18; for `O=C1CN(c2nccnc2Oc2ccc(Nc3nc4ccccc4s3)cc2)CCN1` [drawing 749], 8.19.
On to `c1ccc2sc(Nc3ccc(Oc4nccnc4NC4CCCOC4)cc3)nc2c1` (stereo not shown) [Example 58, N-(4-(3-(TETRAHYDRO-2H-PYRAN-3-YLAMINO)PYRAZIN-2-YLOXY)PHENYL)BENZO[D]THIAZOL-2-AMINE], for which, under setting [1], the pIC50 was 7.00 to 7.60.
Same read-out and setting: for `OCCC1CCN(c2nccnc2Oc2ccc(Nc3nc4ccccc4s3)cc2)CC1` [Example 86, 2-(1-(3-(4-(benzo[d]thiazol-2-ylamino)phenoxy)pyrazin-2-yl)piperidin-4-yl)ethanol] the value was 7.00 to 7.60.
Turning to `O=C(c1ccc(Oc2nccnc2N2CCC(CCO)CC2)cc1)c1nc2ccccc2[nH]1`, the pIC50 under setting [2] is 8.40.
Take `N#CC1(c2nccnc2Oc2ccc(C(=O)c3nc4ccccc4[nH]3)cc2)CCOCC1` [Example 211, 4-(3-(4-(1H-benzo[d]imidazole-2-carbonyl)phenoxy)pyrazin-2-yl)tetrahydro-2H-pyran-4-carbonitrile]: the pIC50 under setting [1] is more than 7.60.
As to `O=C(c1ccc(Oc2nccnc2OCC2CC2)cc1)c1nc2ccccc2[nH]1` [drawing 846], the pIC50 under setting [2] is 6.79.
On the same count and under the same terms, for `c1ccc2sc(Nc3ccc(Oc4nccnc4[C@H]4CCOC4)cc3)nc2c1` (stereo in doubt) the value was 8.69.
`O=C(c1ccc(Oc2nccnc2C2CCCC2)cc1)c1nc2ccccc2[nH]1` [Example 220, (1H-benzo[d]imidazol-2-yl)(4-(3-cyclopentylpyrazin-2-yloxy)phenyl)methanone]: under setting [1], the pIC50 was 7.00 to 7.60.
As for `CC(=O)N1CC[C@@H](c2nccnc2Oc2ccc(C(=O)c3nc4ccccc4[nH]3)cc2)C1` (stereo in doubt), the pIC50 under setting [2] was 8.12.
`COCC(=O)N1CCC(c2nccnc2Oc2ccc(C(=O)c3nc4ccccc4[nH]3)cc2)CC1` [drawing 945]: the pIC50 under setting [2] is 10.44.
On to `COCC1CCCN(c2nccnc2Oc2ccc(Nc3nc4ccccc4s3)cc2)C1` (stereo not shown) [drawing 736], for which, under setting [2], the pIC50 is 7.73.
Take `O=C(c1ccc(Oc2nccnc2[C@H]2CCC[C@H](O)C2)cc1)c1nc2ccccc2[nH]1` [Example 273, (1H-benzo[d]imidazol-2-yl)(4-(3-((1S,3S)-3-hydroxycyclohexyl)pyrazin-2-yloxy)phenyl) methanone]: the pIC50 under setting [3] is more than 7.60.
Regarding `c1ccc2sc(Nc3ccc(Oc4nccnc4N4CCc5[nH]cnc5C4)cc3)nc2c1` [Example 80, N-(4-(3-(6,7-dihydro-1H-imidazo[4,5-c]pyridin-5(4H)-yl)pyrazin-2-yloxy)phenyl)-benzo[d]thiazol-2-amine], the pIC50 under setting [1] was 7.00 to 7.60.
